The values below come from US7763642B2 (Sterix Ltd., priority 2004, dated 2010).

The target of one assay is T1, aromatase (Homo sapiens, UniProt P11511).
T1 construct: Intact monolayers of JEG3 cells (2.5×10^6 cells) in triplicate 25 cm^2 tissue culture flasks; host or cells: JEG3 choriocarcinoma cells
T1 sequence (P11511 1-503): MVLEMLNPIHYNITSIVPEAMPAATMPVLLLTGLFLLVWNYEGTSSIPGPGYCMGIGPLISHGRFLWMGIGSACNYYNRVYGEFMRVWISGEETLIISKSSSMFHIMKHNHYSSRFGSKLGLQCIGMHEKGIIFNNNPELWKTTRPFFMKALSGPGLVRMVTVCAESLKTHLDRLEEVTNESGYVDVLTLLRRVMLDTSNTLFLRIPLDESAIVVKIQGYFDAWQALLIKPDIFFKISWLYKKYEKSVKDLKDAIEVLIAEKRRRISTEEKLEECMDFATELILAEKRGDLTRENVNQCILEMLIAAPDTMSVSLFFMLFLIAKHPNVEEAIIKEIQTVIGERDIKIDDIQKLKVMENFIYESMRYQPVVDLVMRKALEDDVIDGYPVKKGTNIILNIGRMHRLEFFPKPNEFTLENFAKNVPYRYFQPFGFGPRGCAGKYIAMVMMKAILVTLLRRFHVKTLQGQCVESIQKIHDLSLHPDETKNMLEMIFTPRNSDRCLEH
In words: Aromatase activity in JEG3 choriocarcinoma cells (Protocol 6). The format is cell-based.

The target of the next assay is T2, steroid sulphatase (STS) (Homo sapiens, UniProt P08842).
T2 construct: Intact monolayers of JEG3 cells in triplicate 25 cm^2 tissue culture flasks; host or cells: JEG3 choriocarcinoma cells
T2 sequence (P08842 22-583): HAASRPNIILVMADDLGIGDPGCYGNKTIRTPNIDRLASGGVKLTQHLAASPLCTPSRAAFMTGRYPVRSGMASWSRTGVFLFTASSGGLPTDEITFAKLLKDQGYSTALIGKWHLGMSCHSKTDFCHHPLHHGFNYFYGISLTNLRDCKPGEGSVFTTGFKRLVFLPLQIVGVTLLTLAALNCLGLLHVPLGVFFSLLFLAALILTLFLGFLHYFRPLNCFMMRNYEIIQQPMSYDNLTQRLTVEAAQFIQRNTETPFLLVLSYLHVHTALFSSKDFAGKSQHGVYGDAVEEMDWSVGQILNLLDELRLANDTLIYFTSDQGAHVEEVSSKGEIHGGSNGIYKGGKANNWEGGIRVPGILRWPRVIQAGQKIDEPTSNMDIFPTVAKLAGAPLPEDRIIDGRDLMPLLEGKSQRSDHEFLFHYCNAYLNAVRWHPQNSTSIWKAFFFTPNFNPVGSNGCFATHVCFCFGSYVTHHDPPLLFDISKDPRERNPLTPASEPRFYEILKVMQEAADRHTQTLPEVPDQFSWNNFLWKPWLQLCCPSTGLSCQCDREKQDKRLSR
In words: Inhibition of steroid sulphatase activity in JEG3 cells (Protocol 1). Conditions: for inhibition at 10 µM: JEG-3, read-out: % STS INHIBITION (10 μM). The format is cell-based. On the procedure:
Steroid sulphatase activity is measured in vitro using intact JEG3 choriocarcinoma cells. This cell line may be used to study the control of human breast cancer cell growth.
Cells are maintained in Minimal Essential Medium (MEM) (Flow Laboratories, Irvine, Scotland) containing 20 mM HEPES, 5% foetal bovine serum, 2 mM glutamine, non-essential amino acids and 0.075% sodium bicarbonate. Up to 30 replicate 25 cm2 tissue culture flasks are seeded with approximately 1×10^5 cells/flask using the above medium. Cells are grown to 80% confluency and the medium is changed every third day.
Intact monolayers of JEG3 cells in triplicate 25 cm^2 tissue culture flasks are washed with Earle's Balanced Salt Solution (EBSS from ICN Flow, High Wycombe, U.K.) and incubated for 3-4 hours at 37° C. with 5 pmol (7×10^5 dpm) [6,7-3H]oestrone-3-sulphate (specific activity 60 Ci/mmol from New England Nuclear, Boston, Mass., U.S.A.) in serum-free MEM (2.5 ml) together with oestrone-3-sulphamate (11 concentrations: 0; 1 fM; 0.01 pM; 0.1 pM; 1 pM; 0.01 nM; 0.1 nM; 1 nM; […]). After incubation each flask is cooled and the medium (1 ml) is pipetted into separate tubes containing [14C]oestrone (7×10^3 dpm) (specific activity 97 Ci/mmol from Amersham International Radiochemical Centre, Amersham, U.K.). The mixture is shaken thoroughly for 30 seconds with toluene (5 ml). Experiments have shown that >90% [14C] oestrone and <0.1% [3H]oestrone-3-sulphate is removed from the aqueous phase by this treatment. A portion (2 ml) of the organic phase is removed, evaporated and the 3H and 14C content of the residue determined by scintillation spectrometry. The mass of oestrone-3-sulphate hydrolysed was calculated from the 3H counts obtained (corrected for the volumes of the medium and organic phase used, and for recovery of [14C] oestrone added) and the specific activity of the substrate. Each batch of experiments includes incubations of microsomes prepared from a sulphatase-positive human placenta (positive control) and flasks without cells (to assess apparent non-enzymatic hydrolysis of the substrate). The number of cell nuclei per flask is determined using a Coulter Counter after treating the cell monolayers with Zaponin. One flask in each batch is used to assess cell membrane status and viability using the Trypan Blue exclusion method (Phillips, H. J. (1973) In: Tissue culture and applications, [eds: Kruse, D. F. & Patterson, M. K.]; pp. 406-408; Academic Press, New York).
Results for steroid sulphatase activity are expressed as the mean±1 S.D. of the total product (oestrone+oestradiol) formed during the incubation period (3-4 hours) calculated for […] and, for values showing statistical significance, as a percentage reduction (inhibition) over incubations containing no oestrone-3-sulphamate. Unpaired Student's t-test was used to test the statistical significance of results.

The test system of the next assay is uterus. The settings on record: cited from earlier work.
The next assay has as its target T3, steroid sulphatase (Homo sapiens, UniProt P08842).
T3 sequence (P08842 22-583): T2 sequence (P08842 22-583)
The settings on record: versus EMATE; cited from earlier work.

The next assay addresses T4, E1-STS (Homo sapiens, UniProt P08842).
T4 construct: host or cells: MCF-7 cells
T4 sequence (P08842 22-583): T2 sequence (P08842 22-583)
Conditions: 0.1 nM; cited from earlier work.

In assay [1] the target is T5, oestrone sulphatase (STS) (Rattus norvegicus, UniProt P15589).
T5 construct: samples of liver tissue were obtained and oestrone sulphatase activity assayed; from tissue; host or cells: rat liver
T5 sequence (P15589 20-577): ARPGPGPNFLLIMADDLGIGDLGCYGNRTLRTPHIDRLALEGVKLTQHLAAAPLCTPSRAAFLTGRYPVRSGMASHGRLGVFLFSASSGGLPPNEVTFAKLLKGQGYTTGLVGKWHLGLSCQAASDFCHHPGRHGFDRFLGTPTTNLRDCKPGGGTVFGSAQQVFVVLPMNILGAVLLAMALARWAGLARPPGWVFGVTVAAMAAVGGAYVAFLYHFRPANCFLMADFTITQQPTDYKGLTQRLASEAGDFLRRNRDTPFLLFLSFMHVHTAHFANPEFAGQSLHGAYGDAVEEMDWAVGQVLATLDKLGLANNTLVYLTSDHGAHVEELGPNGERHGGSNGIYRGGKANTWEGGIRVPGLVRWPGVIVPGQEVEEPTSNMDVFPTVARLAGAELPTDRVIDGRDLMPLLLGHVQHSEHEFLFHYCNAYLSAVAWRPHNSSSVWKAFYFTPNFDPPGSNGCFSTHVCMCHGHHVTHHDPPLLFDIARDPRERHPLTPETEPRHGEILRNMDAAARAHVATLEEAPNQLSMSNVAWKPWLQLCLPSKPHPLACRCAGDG
In words: Inhibition of oestrone sulphatase activity in vivo (Protocol 3). On the procedure:
The compounds of the present invention may be studied using an animal model, in particular in ovariectomised rats. In this model compounds which are oestrogenic stimulate uterine growth.
At the end of the study samples of liver tissue were obtained and oestrone sulphatase activity assayed using 3H oestrone sulphate as the substrate as previously described (see PCT/GB95/02638).
In vivo data were recorded using the above described aromatase and STS animals assays. The relevant compounds were administered and for each animal both aromatase and STS activities were determined.

[2] abbreviates: JEG-3; read-out: % AROMATASE INHIBITION (10 μM).
Where [3] appears, read: JEG-3, read-out: % AROMATASE INHIBITION (10 μM).

SMILES strings stand for the structures. Like-named read-outs stand apart in the source and are kept apart here.

Procedure for aromatase: Aromatase activity is measured in JEG3 choriocarcinoma cells, obtained from the ATCC. […] Cells are maintained in Minimal Essential Medium (MEM, Flow Laboratories, Irvine, Scotland) containing 20 mM HEPES, 10% foetal bovine serum, 2 mM glutamine, non-essential amino acids and 0.075% sodium bicarbonate. Intact monolayers of JEG3 cells (2.5×10^6 cells) in triplicate 25 cm^2 tissue culture flasks are washed with Earle's Balanced salt solution (EBSS, from ICN Flow, High Wycombe, UK) and incubated with [1β-^3H] androstenedione (2-5 nM, 26 Ci/mmol, New England Nuclear, Boston, Mass., USA) for 30 min with inhibitors over the range of 10 pm-10 μM. During the aromatase reaction, ^3H2O is liberated which can he quantified using a liquid scintillation spectrometer (Beckman-Coulter, High Wycombe, Bucks. UK). […] The number of cell nuclei per flask is determined using a Coulter Counter after treating the cell monolayers with Z aponin.
Unpaired Student's t test was used to test the statistical significance of results. IC50 values were calculated as the concentration of inhibitor required to obtain a 50% inhibition of aromatase activity.

With `CC(C)(C#N)c1cc(CSc2ccc(OS(N)(=O)=O)c(Cl)c2)cc(Cn2cncn2)c1`, the results for the inhibition at 10 µM on aromatase (setting [2]) and at steroid sulphatase (STS) were 99.9 ± 0.2% and 82.3 ± 0.8%, respectively. As for `CC(C)(C#N)c1cc(COc2ccc(OS(N)(=O)=O)cc2)cc(Cn2cncn2)c1`, the results for the inhibition at 10 µM at aromatase (setting [2]) and on steroid sulphatase (STS) were 99.8 ± 0.2% and below 10%, respectively.

Regarding `COc1cc2c(cc1OS(N)(=O)=O)CC[C@@H]1[C@@H]2CC[C@]2(C)C(=O)CC[C@@H]12` [2-methoxyoestrone-3-O-sulphamate], in the assay with uterus (rat, in vivo), the oestrogenicity entry is given as “devoid of oestrogenicity”. Also, the “potency as steroid sulphatase inhibitor relative to EMATE” value at steroid sulphatase was “equipotent with EMATE”. Turning to `CC12CCC3c4ccc(OS(N)(=O)=O)cc4CCC3C1CCC2=O` (stereo not drawn) [EMATE, oestrone-3-sulphamate], the “inhibition of E1-STS activity in intact MCF-7 cells” value on E1-STS is on record as “more than 99%”. For the same molecule, in the assay on uterus (rats, oral, versus estradiol), the “oral uterotrophic activity relative to estradiol” value is given as 100 times. Turning to `CC(C)(C#N)c1cc(CSc2ccc(O)cc2)cc(Cn2cncn2)c1` [STX1022], at aromatase (JEG3 cells), half-maximal inhibition (IC50) required 1 nM.

Consider `CC(C)(C#N)c1cc(CSc2ccc(OS(N)(=O)=O)cc2)cc(Cn2cncn2)c1` [STX1023], for which the IC50 is 3.5 nM at aromatase (JEG3 cells) and above 10000 nM on steroid sulphatase (STS) (JEG3 cells). Besides, at 10 mg/kg the inhibition in assay [1] was 87%. With `N#Cc1ccc(-c2ccc(OS(N)(=O)=O)cc2)cc1Cn1cncn1` [STX1522, Sulfamic acid 4′-cyano-3′-[1,2,4]triazol-1-ylmethyl-biphenyl-4-yl ester], the inhibition at 10 µM at aromatase (setting [3]) amounted to 98 ± 0.3%; at steroid sulphatase (STS), 96.1 ± 0.3%.

Take `CC(C)(C#N)c1cc(Cn2cncn2)cc(-c2ccc(OS(N)(=O)=O)cc2)c1` [STX1523, Sulfamic acid 3′-(cyano-dimethyl-methyl)-5′-[1,2,4]triazol-1-ylmethyl-biphenyl-4-yl ester]: the values for the inhibition at 10 µM at aromatase (setting [2]) and at steroid sulphatase (STS) were 99.7 ± 0.2% and 24.4 ± 3.1%, respectively. In the case of `COC(=O)c1cc(Cn2cncn2)cc(NS(=O)(=O)c2ccc(OS(N)(=O)=O)c(F)c2)c1` [STX1528, 3-(3-Fluoro-4-sulfamoyloxy-benzenesulfonylamino)-5-[1,2,4]triazol-1-ylmethyl-benzoic acid methyl ester], the inhibition at 10 µM at aromatase (setting [3]) was 83.4 ± 1.3%; at steroid sulphatase (STS) it was below 10%. In the case of `N#CC1(c2cc(CSc3ccc(OS(N)(=O)=O)cc3)cc(Cn3cncn3)c2)CCC1` [STX1731, 4-((3-((1H-1,2,4-triazol-1-yl)methyl)-5-(1-cyanocyclobutyl)benzyl)sulfanyl)phenyl sulfamate], the inhibition at 10 µM on aromatase (setting [2]) is 99.5 ± 0.2%; at steroid sulphatase (STS) it was 21.4 ± 7.9%. In the same order, the values of `N#CC1(c2cc(CSc3ccc(OS(N)(=O)=O)cc3)cc(Cn3cncn3)c2)CC1` [STX1732, 4-((3-((1H-1,2,4-triazol-1-yl)methyl)-5-(1-cyanocyclopropyl)benzyl)sulfanyl)phenyl sulfamate] are 99.8 ± 0.1% and below 10%. For `N#CC1(c2cc(CSc3ccc(OS(N)(=O)=O)c(Cl)c3)cc(Cn3cncn3)c2)CCC1` [STX1794, 4-((3-((1H-1,2,4-triazol-1-yl)methyl)-5-(1-cyanocyclobutyl)benzyl)sulfanyl)-2-chlorophenyl sulfamate] the same measures were 99.7 ± 0.1% and 75.3 ± 0.6%.

As to `CC(C)(C#N)c1cc(CSc2ccc(OS(N)(=O)=O)c(Br)c2)cc(Cn2cncn2)c1` [STX1795, 4-((3-((1H-1,2,4-triazol-1-yl)methyl)-5-(2-cyanopropan-2-yl)benzyl)sulfanyl)-2-bromophenyl sulfamate], the inhibition at 10 µM on aromatase (setting [2]) was determined as 100%. Turning to `COC(=O)c1cc(Cn2cncn2)cc(N(C)S(=O)(=O)c2ccc(OS(N)(=O)=O)cc2)c1` [STX1829, 3-[Methyl-(4-sulfamoyloxy-benzenesulfonyl)-amino]-5-[1,2,4]triazol-1-ylmethyl-benzoic acid methyl ester], the inhibition at 10 µM at aromatase (setting [2]) was determined as 99.5 ± 0.2%; at steroid sulphatase (STS), 17.6 ± 4%. For the molecule `COC(=O)c1cc(Cn2cncn2)cc(NC(=O)c2ccc(OS(N)(=O)=O)cc2)c1` [STX1830, 3-(4-Sulfamoyloxy-benzoylamino)-5-[1,2,4]triazol-1-ylmethyl-benzoic acid methyl ester], the inhibition at 10 µM on aromatase (setting [3]) worked out at 52.7 ± 6.7%; on steroid sulphatase (STS) it was 33.4 ± 5.3%. For the molecule `CC(C)(C#N)c1cc(/C=C/c2ccc(OS(N)(=O)=O)cc2)cc(Cn2cncn2)c1` [STX1833, 4-(3-((1H-1,2,4-triazol-1-yl)methyl)-5-(2-cyanopropan-2-yl)styryl)phenyl sulfamate], the inhibition at 10 µM on steroid sulphatase (STS) is 21.5 ± 4.7%.

By inhibition is commonly meant the percentage by which the read-out fell short of the control. In general, IC50 refers to the concentration at which inhibition is half-maximal.
